Measured values taken from paper PMC11317875 (Chemical Science, 2024).

test system: Mycobacterium tuberculosis; test: F-Tre uptake at a single time point, HPAEC-PAD of cytosolic extracts; assay type: cell-based; conditions: 0-200 μM probe, ion chromatography of cytosolic extracts

Question: With OC[C@H]1O[C@H](O[C@H]2O[C@H](CO)[C@@H](F)[C@H](O)[C@H]2O)[C@H](O)[C@@H](O)[C@@H]1O [4F-Tre] as the compound, how does the “uptake / accumulation in Mtb cells” value read?
Answer: No uptake

Question: Which “uptake / accumulation in Mtb cells” value does the source give for OC[C@H]1O[C@H](O[C@H]2O[C@H](CF)[C@@H](O)[C@H](O)[C@H]2O)[C@H](O)[C@@H](O)[C@@H]1O [6F-Tre, 6-deoxy-6-fluoro-trehalose] here?
Answer: significant dose-dependent increase in the accumulation

same assay, conditions: Mtb + 25 µM F-Tre, HPAEC trace

Question: Which “Peak area of F-Tre peak” value does the source give for OC[C@H]1O[C@H](O[C@H]2O[C@H](CF)[C@@H](O)[C@H](O)[C@H]2O)[C@H](O)[C@@H](O)[C@@H]1O [6F-Tre, 6-deoxy-6-fluoro-trehalose] here?
Answer: 0.144 nC*min

same assay, conditions: Mtb + 50 µM F-Tre, HPAEC trace

Question: For OC[C@H]1O[C@H](O[C@H]2O[C@H](CF)[C@@H](O)[C@H](O)[C@H]2O)[C@H](O)[C@@H](O)[C@@H]1O [6F-Tre, 6-deoxy-6-fluoro-trehalose], which “Peak area of F-Tre peak” value is on record?
Answer: 0.506 nC*min

same assay, conditions: Mtb + 100 µM F-Tre, HPAEC trace

Question: For OC[C@H]1O[C@H](O[C@H]2O[C@H](CF)[C@@H](O)[C@H](O)[C@H]2O)[C@H](O)[C@@H](O)[C@@H]1O [6F-Tre, 6-deoxy-6-fluoro-trehalose], which “Peak area of F-Tre peak” value is on record?
Answer: 0.866 nC*min

same assay, conditions: Mtb + 200 µM F-Tre, HPAEC trace

Question: Which “Peak area of F-Tre peak” value does the source give for OC[C@H]1O[C@H](O[C@H]2O[C@H](CF)[C@@H](O)[C@H](O)[C@H]2O)[C@H](O)[C@@H](O)[C@@H]1O [6F-Tre, 6-deoxy-6-fluoro-trehalose] here?
Answer: 1.604 nC*min

test system: Mycobacterium tuberculosis; test: Time dependent F-Tre uptake, HPAEC-PAD of cytosolic extracts; assay type: cell-based; conditions: 100 μM probe, cytosolic extracts
Experimental: lyophilised, resuspended in 1 mL 18 MΩ H2O and filtered through a 10-kDa molecular weight cut-off centrifuge filter (Amicon) and the filtrate analysed. HPAEC-PAD was performed on a Dionex ICS5000+ system with a CarboPac PA-20 analytical column (3 mm x 150 mm) and PA-20 guard column (3 mm x 30 mm) kept at 20 °C. Pulsed amperometry with standard quadrupole waveform was used for detection. The system was equipped with an autosampler that was set up to inject 10 μL sample volumes. Multistep gradient […]
Chromeleon 7 software (Dionex) was used for data processing.
Table S11: High performance anion exchange chromatography KOH elution gradient for F-Tre analysis Time (min) KOH conc. (mM) Flow rate (mL/min)
To quantify uptake, the peak area of 2F-Tre, 3F-Tre and 6F-Tre standards at varying concentrations were measured (Chromeleon 7 software). The peak area was plotted against concentration and simple linear regression was plotted. To determine the concentration of F-Tre analogues in cytosolic samples the area of the peaks of interest was measured (Chromeleon 7 software) and the concentration determined from the calibration […]
Time dependent F-Tre uptake
M. tuberculosis was grown to an OD600 of 0.8, then 2F-Tre, 3F-Tre, 4F-Tre or 6F-Tre were added to a final concentration of 100 µM. Controls with the equivalent volume of water or equivalent concentration of trehalose were also prepared. 5 mL aliquots were taken at T=0, 0.5, 1, 1.5, 2, 3, 4, 6, 8 h and the cells were harvested by centrifugation (2,916 x g, 5 min, 22 ° C) and washed (5 mL PBST) three times. The pellets were then resuspended in 1 mL H2O and lysed by mechanical disruption using 0.1 mm zirconia/silica beads (BioSpec Products) on a FastPrep (MP Biomedicals) ribolyser (4 x 45 s cycles with 90 s on ice in between).
Samples were then centrifuged (16,200 x g, 10 min, 22 °C) and the supernatant collected, lyophilised, resuspended in 1 mL 18 MΩ H2O and filtered through a 10-kDa molecular weight cut-off centrifuge filter (Amicon). The filtrate was analysed by HPAEC-PAD and quantified as described above.

Question: For OC[C@H]1O[C@H](O[C@H]2O[C@H](CF)[C@@H](O)[C@H](O)[C@H]2O)[C@H](O)[C@@H](O)[C@@H]1O [6F-Tre, 6-deoxy-6-fluoro-trehalose], which accumulation rate is on record?
Answer: 0.82 µM/h

same assay, conditions: Time 0 h, 100 µM probe

Question: OC[C@H]1O[C@H](O[C@H]2O[C@H](CO)[C@@H](F)[C@H](O)[C@H]2O)[C@H](O)[C@@H](O)[C@@H]1O [4F-Tre] was tested. Which Mtb cytosolic concentration did it give?
Answer: 0 µM

Question: For OC[C@H]1O[C@H](O[C@H]2O[C@H](CF)[C@@H](O)[C@H](O)[C@H]2O)[C@H](O)[C@@H](O)[C@@H]1O [6F-Tre, 6-deoxy-6-fluoro-trehalose], which Mtb cytosolic concentration is on record?
Answer: 0 ± 0 µM

same assay, conditions: Time 0.5 h, 100 µM probe

Question: OC[C@H]1O[C@H](O[C@H]2O[C@H](CO)[C@@H](F)[C@H](O)[C@H]2O)[C@H](O)[C@@H](O)[C@@H]1O [4F-Tre] was tested. Which Mtb cytosolic concentration did it give?
Answer: 0 µM

Question: OC[C@H]1O[C@H](O[C@H]2O[C@H](CF)[C@@H](O)[C@H](O)[C@H]2O)[C@H](O)[C@@H](O)[C@@H]1O [6F-Tre, 6-deoxy-6-fluoro-trehalose] was tested. Which Mtb cytosolic concentration did it give?
Answer: 342 ± 16 µM

same assay, conditions: Time 1 h, 100 µM probe

Question: How did the Mtb cytosolic concentration turn out when OC[C@H]1O[C@H](O[C@H]2O[C@H](CO)[C@@H](F)[C@H](O)[C@H]2O)[C@H](O)[C@@H](O)[C@@H]1O [4F-Tre] was run?
Answer: 0 µM

Question: Which Mtb cytosolic concentration does the source give for OC[C@H]1O[C@H](O[C@H]2O[C@H](CF)[C@@H](O)[C@H](O)[C@H]2O)[C@H](O)[C@@H](O)[C@@H]1O [6F-Tre, 6-deoxy-6-fluoro-trehalose] here?
Answer: 797 ± 224 µM

same assay, conditions: Time 1.5 h, 100 µM probe

Question: Which Mtb cytosolic concentration does the source give for OC[C@H]1O[C@H](O[C@H]2O[C@H](CO)[C@@H](F)[C@H](O)[C@H]2O)[C@H](O)[C@@H](O)[C@@H]1O [4F-Tre] here?
Answer: 0 µM

Question: OC[C@H]1O[C@H](O[C@H]2O[C@H](CF)[C@@H](O)[C@H](O)[C@H]2O)[C@H](O)[C@@H](O)[C@@H]1O [6F-Tre, 6-deoxy-6-fluoro-trehalose] was tested. Which Mtb cytosolic concentration did it give?
Answer: 1392 ± 83 µM

same assay, conditions: Time 2 h, 100 µM probe

Question: How did the Mtb cytosolic concentration turn out when OC[C@H]1O[C@H](O[C@H]2O[C@H](CO)[C@@H](F)[C@H](O)[C@H]2O)[C@H](O)[C@@H](O)[C@@H]1O [4F-Tre] was run?
Answer: 0 µM

Question: With OC[C@H]1O[C@H](O[C@H]2O[C@H](CF)[C@@H](O)[C@H](O)[C@H]2O)[C@H](O)[C@@H](O)[C@@H]1O [6F-Tre, 6-deoxy-6-fluoro-trehalose] as the compound, how does the Mtb cytosolic concentration read?
Answer: 1804 ± 111 µM

same assay, conditions: Time 4 h, 100 µM probe

Question: With OC[C@H]1O[C@H](O[C@H]2O[C@H](CO)[C@@H](F)[C@H](O)[C@H]2O)[C@H](O)[C@@H](O)[C@@H]1O [4F-Tre] as the compound, how does the Mtb cytosolic concentration read?
Answer: 0 µM

Question: OC[C@H]1O[C@H](O[C@H]2O[C@H](CF)[C@@H](O)[C@H](O)[C@H]2O)[C@H](O)[C@@H](O)[C@@H]1O [6F-Tre, 6-deoxy-6-fluoro-trehalose] was tested. Which Mtb cytosolic concentration did it give?
Answer: 2945 ± 234 µM

same assay, conditions: Time 6 h, 100 µM probe

Question: With OC[C@H]1O[C@H](O[C@H]2O[C@H](CO)[C@@H](F)[C@H](O)[C@H]2O)[C@H](O)[C@@H](O)[C@@H]1O [4F-Tre] as the compound, how does the Mtb cytosolic concentration read?
Answer: 0 µM

Question: Which Mtb cytosolic concentration does the source give for OC[C@H]1O[C@H](O[C@H]2O[C@H](CF)[C@@H](O)[C@H](O)[C@H]2O)[C@H](O)[C@@H](O)[C@@H]1O [6F-Tre, 6-deoxy-6-fluoro-trehalose] here?
Answer: 4694 ± 237 µM

same assay, conditions: Time 8 h, 100 µM probe

Question: How did the Mtb cytosolic concentration turn out when OC[C@H]1O[C@H](O[C@H]2O[C@H](CO)[C@@H](F)[C@H](O)[C@H]2O)[C@H](O)[C@@H](O)[C@@H]1O [4F-Tre] was run?
Answer: 0 µM

Question: OC[C@H]1O[C@H](O[C@H]2O[C@H](CF)[C@@H](O)[C@H](O)[C@H]2O)[C@H](O)[C@@H](O)[C@@H]1O [6F-Tre, 6-deoxy-6-fluoro-trehalose] was tested. Which Mtb cytosolic concentration did it give?
Answer: 6843 ± 43 µM

same assay, conditions: up to the 8 hour timepoint

Question: For OC[C@H]1O[C@H](O[C@H]2O[C@H](CF)[C@@H](O)[C@H](O)[C@H]2O)[C@H](O)[C@@H](O)[C@@H]1O [6F-Tre, 6-deoxy-6-fluoro-trehalose], which saturation of uptake is on record?
Answer: no saturation of uptake

test system: Wild-type Mycobacterium bovis BCG; test: not given; assay type: cell-based; conditions: 100 μM probe

Question: How did the “accumulation in cytosolic extracts” value turn out when OC[C@H]1O[C@H](O[C@H]2O[C@H](CO)[C@@H](F)[C@H](O)[C@H]2O)[C@H](O)[C@@H](O)[C@@H]1O [4F-Tre] was run?
Answer: not

Question: With OC[C@H]1O[C@H](O[C@H]2O[C@H](CF)[C@@H](O)[C@H](O)[C@H]2O)[C@H](O)[C@@H](O)[C@@H]1O [6F-Tre, 6-deoxy-6-fluoro-trehalose] as the compound, how does the “accumulation in cytosolic extracts” value read?
Answer: accumulate

test system: Mtb; test: not given; assay type: cell-based, Mycobacterium tuberculosis; conditions: not given

Question: For OC[C@H]1O[C@H](O[C@H]2O[C@H](CO)[C@@H](F)[C@H](O)[C@H]2O)[C@H](O)[C@@H](O)[C@@H]1O [4F-Tre], which “presence in trehalose glycolipids” value is on record?
Answer: not found in any trehalose glycolipid

same assay, conditions: 100 μM probe

Question: For OC[C@H]1O[C@H](O[C@H]2O[C@H](CO)[C@@H](F)[C@H](O)[C@H]2O)[C@H](O)[C@@H](O)[C@@H]1O [4F-Tre], which “new spots in the lipid extracts (TLC)” value is on record?
Answer: No new spots

Question: How did the “new spots in the lipid extracts (TLC)” value turn out when OC[C@H]1O[C@H](O[C@H]2O[C@H](CF)[C@@H](O)[C@H](O)[C@H]2O)[C@H](O)[C@@H](O)[C@@H]1O [6F-Tre, 6-deoxy-6-fluoro-trehalose] was run?
Answer: new spots

same assay, conditions: 100 μM probe; Fig. 8 shows Mtb and M. bovis BCG

Question: With OC[C@H]1O[C@H](O[C@H]2O[C@H](CF)[C@@H](O)[C@H](O)[C@H]2O)[C@H](O)[C@@H](O)[C@@H]1O [6F-Tre, 6-deoxy-6-fluoro-trehalose] as the compound, how does the “additional band in the TDM region (TLC)” value read?
Answer: no additional band in the TDM region

Question: What about the “additional lower polarity bands than TMM (TLC)” value of the same compound?
Answer: one

test system: M. bovis BCG; test: not given; assay type: cell-based, Mycobacterium bovis BCG; conditions: not given

Question: OC[C@H]1O[C@H](O[C@H]2O[C@H](CO)[C@@H](F)[C@H](O)[C@H]2O)[C@H](O)[C@@H](O)[C@@H]1O [4F-Tre] was tested. Which “presence in trehalose glycolipids” value did it give?
Answer: not found in any trehalose glycolipid

same assay, conditions: 100 μM probe

Question: With OC[C@H]1O[C@H](O[C@H]2O[C@H](CO)[C@@H](F)[C@H](O)[C@H]2O)[C@H](O)[C@@H](O)[C@@H]1O [4F-Tre] as the compound, how does the “new spots in the lipid extracts (TLC)” value read?
Answer: No new spots

Question: With OC[C@H]1O[C@H](O[C@H]2O[C@H](CF)[C@@H](O)[C@H](O)[C@H]2O)[C@H](O)[C@@H](O)[C@@H]1O [6F-Tre, 6-deoxy-6-fluoro-trehalose] as the compound, how does the “new spots in the lipid extracts (TLC)” value read?
Answer: new spots

biological target: LpqY (Mycolicibacterium thermoresistibile, UniProt G7CES0); test: Microscale thermophoresis (MST) binding to LpqY; conditions: not given
Sequence (G7CES0 29-471): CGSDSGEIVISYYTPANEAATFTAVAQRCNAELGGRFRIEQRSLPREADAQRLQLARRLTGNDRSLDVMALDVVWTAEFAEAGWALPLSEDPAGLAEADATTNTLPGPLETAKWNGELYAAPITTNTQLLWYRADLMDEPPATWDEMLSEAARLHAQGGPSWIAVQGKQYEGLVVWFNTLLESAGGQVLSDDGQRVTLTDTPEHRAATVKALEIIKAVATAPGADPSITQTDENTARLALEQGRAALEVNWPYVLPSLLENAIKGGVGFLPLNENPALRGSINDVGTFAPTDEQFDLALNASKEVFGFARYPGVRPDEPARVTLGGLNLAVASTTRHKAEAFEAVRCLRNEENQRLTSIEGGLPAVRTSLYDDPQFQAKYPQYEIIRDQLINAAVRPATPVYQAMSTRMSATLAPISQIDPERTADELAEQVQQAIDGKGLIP

Question: OC[C@H]1O[C@H](O[C@H]2O[C@H](CO)[C@@H](F)[C@H](O)[C@H]2O)[C@H](O)[C@@H](O)[C@@H]1O [4F-Tre] was tested. Which Kd did it give?
Answer: 1480 ± 75.6 µM

Question: OC[C@H]1O[C@H](O[C@H]2O[C@H](CF)[C@@H](O)[C@H](O)[C@H]2O)[C@H](O)[C@@H](O)[C@@H]1O [6F-Tre, 6-deoxy-6-fluoro-trehalose] was tested. Which Kd did it give?
Answer: 90.3 ± 0.9 µM

same assay, conditions: MST

Question: OC[C@H]1O[C@H](O[C@H]2O[C@H](CO)[C@@H](F)[C@H](O)[C@H]2O)[C@H](O)[C@@H](O)[C@@H]1O [4F-Tre] was tested. Which affinity range did it give?
Answer: millimolar range

same assay, conditions: compared with 3F-Tre, 6F-Tre and unmodified trehalose

Question: For OC[C@H]1O[C@H](O[C@H]2O[C@H](CO)[C@@H](F)[C@H](O)[C@H]2O)[C@H](O)[C@@H](O)[C@@H]1O [4F-Tre], which “fold weaker binding to LpqY” value is on record?
Answer: ~16 fold
